According to ChEMBL document CHEMBL4138122, “Azaphenothiazines - promising phenothiazine derivatives. An insight into nomenclature, synthesis, structure elucidation and biological properties” (Eur J Med Chem, 2017):
Converted amounts (≈) assume the structure as drawn.

Columns and labels:
[1] = tested on: Mycobacterium tuberculosis; experiment: Antitubercular activity against Mycobacterium tuberculosis H37Rv assessed as inhibition of bacterial growth at 6.25 ug/ml; type: functional; conditions: read-out: GI
[2] = tested on: Mycobacterium tuberculosis; experiment: Antitubercular activity against Mycobacterium tuberculosis H37Rv; type: functional
[3] = tested on: EKVX; experiment: Cytotoxicity against human EKVX cells assessed as cell growth inhibition at 2.1 ug/ml after 48 hrs by SRB assay; type: functional, cell-based; conditions: read-out: GI
[4] = tested on: UO-31; experiment: Cytotoxicity against human UO31 cells assessed as cell growth inhibition at 2.1 ug/ml after 48 hrs by SRB assay; type: functional; conditions: UO-31, 48 h, read-out: GI
[5] = Inhibition of LTB4 formation in rat polymorphonuclear leukocytes preincubated for 2 mins followed by A-23187 addition after 4 mins; type: functional, cell-based
[6] = tested on: Rattus norvegicus; experiment: Anti-asthmatic activity in rat assessed as inhibition of egg albumin-induced duration of symptoms of dyspnoea at 5 mg/kg, po administered 90 mins prior to dyspnoea induction; type: functional
[7] = tested on: Rattus norvegicus; experiment: Anti-asthmatic activity in rat assessed as inhibition of egg albumin-induced duration of symptoms of dyspnoea at 3 mg/kg, po administered 90 mins prior to dyspnoea induction; type: functional
[8] = tested on: SNB-19; experiment: Cytotoxicity against human SNB19 cells incubated for 72 hrs by WST1 dye based assay; type: functional, cell-based; conditions: SNB-19, 72 h
[9] = tested on: 786-0; experiment: Cytotoxicity against human 786-O cells assessed as cell growth inhibition after 48 hrs by SRB assay; type: functional, cell-based; conditions: 786-0, 48 h
[10] = tested on: SNB-75; experiment: Cytotoxicity against human SNB75 cells assessed as cell growth inhibition after 48 hrs by SRB assay; type: functional, cell-based; conditions: SNB-75, 48 h
[11] = tested on: Hs-578T; experiment: Cytotoxicity against human Hs578T cells assessed as cell growth inhibition after 48 hrs by SRB assay; type: functional, cell-based
[12] = tested on: Trichophyton mentagrophytes; experiment: Antimicrobial activity against Trichophyton mentagrophytes assessed as reduction in microbial growth at 1 to 10 ppm relative to control; type: functional
[13] = tested on: Aspergillus terreus; experiment: Antimicrobial activity against Aspergillus terreus assessed as reduction in microbial growth at 1 to 10 ppm relative to control; type: functional
[14] = tested on: Candida albicans; experiment: Antimicrobial activity against Candida albicans assessed as reduction in […] growth at 500 to 1000 ppm relative to control; type: functional
[15] = tested on: Bacillus subtilis; experiment: Antimicrobial activity against Bacillus subtilis assessed as reduction in microbial growth at 1 to 10 ppm relative to control; type: functional
[16] = tested on: Staphylococcus aureus; experiment: Antimicrobial activity against Staphylococcus aureus assessed as reduction in bacterial growth at 500 to 1000 ppm relative to control; type: functional
[17] = tested on: Staphylococcus aureus; experiment: Antibacterial activity against Staphylococcus aureus; type: functional; conditions: Staphylococcus aureus; read-out: MIC
[18] = tested on: Aspergillus niger; experiment: Antifungal activity against Aspergillus niger; type: functional
[19] = tested on: Bacillus cereus; experiment: Antibacterial activity against Bacillus cereus; type: functional, organism-based
[20] = tested on: Bacillus subtilis; experiment: Antibacterial activity against Bacillus subtilis; type: functional; conditions: Bacillus subtilis
[21] = tested on: Trachea; experiment: Inhibition of egg albumin antigen challenge-induced contraction response in methacholine-primed guinea pig trachea at 10 ug/ml; type: functional; conditions: Cavia porcellus
[22] = tested on: Rattus norvegicus; experiment: Inhibition of PAF-induced hyperalgesia in Sprague-Dawley rat at 10 mg/kg, po dosed 30 mins prior to PAF challenge and measured 1 to 4 hours post PAF challenge; type: functional

Structure (SMILES): O=c1[nH]c2c(Cl)ccc(Cl)c2c2c1Sc1cc(Cl)ccc1N2
- inhibition of growth at 6.25 µg/mL [1]: 67%
- MIC [2]: > 6.25 µg/mL

Structure (SMILES): CN1c2ccncc2Sc2ccncc21
- inhibition of growth at 2.1 µg/mL [3]: 51%
- inhibition of growth at 2.1 µg/mL [4]: 60%

Structure (SMILES): CN1c2ccc(O)c(Cl)c2Sc2nccnc21
- IC50 [5]: 0.05 to 1 µg/mL (≈ 0.188 to 3.76 µM)
- inhibition in vivo at 5 mg/kg [6]: 47%
- inhibition in vivo at 3 mg/kg [7]: 43%

Structure (SMILES): C=CCN1c2cccnc2Sc2cccnc21
- IC50 [8]: 18.9 µg/mL (≈ 78.3 µM)

Structure (SMILES): Cc1ccc(S(=O)(=O)NCCN2c3nc4ccccc4cc3Sc3cc4ccccc4nc32)cc1
- IC50 [9]: 480 nM
- IC50 [10]: 1700 nM
- IC50 [11]: 1700 nM

Structure (SMILES): [O-][S+]1c2ccccc2Nc2nc(Cl)c(Cl)nc21 (stereo not drawn)
- inhibition (INH) [12]: 100%
- inhibition (INH) [13]: 100%
- inhibition (INH) [14]: 100%
- inhibition (INH) [15]: 100%
- inhibition (INH) [16]: 100%

Structure (SMILES): CCSc1ncc2c(n1)N=c1c(c3c(c4ccccc14)=Nc1nc(SCC)nc(O)c1S3)S2
- MIC [17]: 39.8 µg/mL (≈ 78.2 µM)
- MIC [18]: 60.3 µg/mL (≈ 119 µM)
- IC50 [19]: 50.5 µg/mL (≈ 99.3 µM)
- MIC [20]: 63.3 µg/mL (≈ 124 µM)

Structure (SMILES): c1ccc2c(c1)Nc1nccnc1S2
- IC50 [5]: 1 to 5 µg/mL (≈ 4.97 to 24.8 µM)
- inhibition at 10 µg/mL [21]: 85%
- inhibition in vivo at 10 mg/kg [22]: 70%
